# Reference: patent US6645715B1, “Artificial cornea” (University of Ottawa, priority 1998, dated 2003)
# Legend:
# [1] = system: FFA-activated K^+ current of cultured human corneal epithelial cells; experiment: Perforated-patch whole-cell patch clamp, pharmacological activators (FFA-activated current); type: cell-based; conditions: for effect on the FFA-activated current: 3 mM TEA or 5 mM Ba^+2
# Procedure: (§1) Single cells for patch clamp analysis of transfected and non-transfected cells were obtained by washing cultured cells free of culture medium using PBS containing 0.53 mM EDTA and then incubating with Ca^+2 and Mg^+2 free Hanks' balanced salt solution (GIBCO) containing 0.05% trypsin and 0.53 mM EDTA for 2 minutes at 37° C. in a 5% CO2 incubator. Loose cells were aspirated into a Pasteur pipette and transferred into a conical tube containing Media 199 (Sigma, St. Louis, Mo.) supplemented with 10% FCS (Sigma, St. Louis, Mo.). Isolated cells were transferred to an inverted microscope mounted with an external stage, placed into an acrylic chamber filled with Ringer's solution, and allowed to settle and attach to the glass bottom.
# Macroscopic currents in single cells were examined using the perforated-patch configuration of the whole-cell patch-clamp technique with amphotericin B as the perforating agent. The composition of the patch pipette in millimolar was 145 potassium methanesulfonate, 2.5 NaCl, 2.5 CaCl2, 5 HEPES, and […] amphotericin B. Patch pipettes were fabricated from KG-12 capillary glass, coated with Sylgard (Dow Corning, Midland, Mich.) and fire polished. Currents were recorded at room temperature using a patch-clamp amplifier operated by Gateway 486DX2 computer (Gateway 2000, Sioux City, S. Dak.) loaded with pCLAMP software (Axon 200A, Axon Instruments, Foster City, Calif.) for the generation of voltage-clamp protocols. Current recordings were capacity compensated using the amplifier circuitry, sampled between 2 to 5 kHz, filtered between 1 to 2 kHz, and subsequently analyzed with the software program. Voltage-clamp protocols were repeated at least three times to obtain the average current response to a voltage pulse. Current voltage (I-V) relationships were corrected for the junction potential generated by the pipette solution and the amphotericin B-induced Donnan potential by subtracting the difference between the reversal potential of tail currents measured in symmetrical K^+ solutions and the 0 mV potential.
# The tests of examples 1.1, 1.2, and 1.3 were repeated following the addition of 100 μM flufenamic acid (FFA) to the NaCl Ringer's bath.
# To determine the ion selectivity of this TEA-sensitive FFA-activated current, cultured human corneal epithelial cells were bathed in NaCl Ringer's solution with 100 μM FFA and a family of instantaneous tail currents was generated. The same cells were then bathed in NaCl Ringer's solution with 100 μM FFA and 3 mM TEA and a second family of instantaneous tail currents was generated. An instantaneous tail I-V plot was obtained by digitally subtracting the instantaneous tail responses determined for the same cell bathed with FFA with and without TEA.
# [2] = system: nonselective cation current of human corneal epithelial cells; experiment: Perforated-patch whole-cell patch clamp, nonselective cation current; type: cell-based; conditions: 1 mM external
# Procedure: as §1
# Macroscopic currents in single cells were examined using the perforated-patch configuration of the whole-cell patch-clamp technique with amphotericin B as the perforating agent. […] Currents were recorded at room temperature using a patch-clamp amplifier operated by Gateway 486DX2 computer (Gateway 2000, Sioux City, S. Dak.) loaded with pCLAMP software (Axon 200A, Axon Instruments, Foster City, Calif.) for the generation of voltage-clamp protocols. Current recordings were capacity compensated using the amplifier circuitry, sampled between 2 to 5 kHz, filtered between 1 to 2 kHz, and subsequently analyzed with the software program. […]
# [3] = system: endothelium of reconstructed corneas (Na/K ATPase); experiment: Endothelial function test: corneal thickness by Optical Coherence Tomography after ouabain; type: cell-based, human; conditions: 10^-4M ouabain in DMEM, 2 hours, silicone oil on epithelium; one set of corneas, preliminary
# Description: Ouabain, a cardiac glycoside, inhibits Na/K ATPase, disrupting corneal endothelial functioning. When this is applied to the cornea, the endothelium looses its pumping function, and without this, the cornea will swell (Watsky et al. 1990).
# 1. Corneas were reconstructed in 30 mm inserts. In this experiment, we have contructed them with the epithelium down.
# 2. A whole cornea was immersed in DMEM only.
# 3. At the start of the experiment, medium outside insert was removed and replaced with silicone oil. This essentially seals off the epithelium. Corneal thickness was measured using Optical Coherence Tomography (OCT) (Humphrey Instruments, Carl Zeiss, Inc.). Four readings were taken from each cornea and the average was taken.
# 4. DMEM within the control insert was replaced with 1 ml of fresh DMEM only. Experimental cornea was treated with 10^-4M ouabain in DMEM.
# 5. After 2 hours, the corneal thicknesses were measured by OCT.
# 6. Changes in corneal thickness (if any) was calculated.
# [4] = system: primary HUVECs (Normal Cells); experiment: Response to growth factors, primary HUVECs in matrix; type: cell-based, human
# Procedure: Human umbilical vein endothelial cells (HUVECs) were harvested from umbilical cord veins as previously described (Sirois E, et al., Int. J. Artificial Organs 16:609-619, 1993). They were grown on a gelatin-coated dish until confluence in Medium 199 supplemented with 20% FBS, 90 mg/l of heparin, 2 mM of L-glutamine and 100 μg/ml endothelial cell growth supplement (ECGS). Penicillin (100 I.U./ml), streptomycin sulfate (100 μg/ml) and amphotericin B (0.25 μg/ml) were present in medium. After the first passage, FBS concentration was reduced to 10% and ECGS to 20 μg/ml. Cells were subcultured at a ratio of 1:3 or 1:4 and HUVECs from the 2nd to 4th passages were used in our bioassays. Endothelial cell phenotype was verified by the dii-acetylated low-density lipoprotein (diI-Ac-LDL) uptake and positivity to factor VIII-related antigen antibodies by immunocytochemistry. Cultures were incubated in 5% CO2 atmosphere at 37° C. in saturated humidity. The medium was changed every other day.
# The virally transfected HUVECs were tested for functionality by their ability to undergo angiogenesis in a three-dimensional fibrin-containing matrix (FIG. 16); and their ability to sequester acetylated low density lipoprotein labelled with 1,1′-dioctadecyl-3,3,3′,3′-tetramethylindocarbocyanine perchlorate (DiI-Ac-LDL; Biomed. Technol. Inc., Stoughton, Mass.), (FIGS. 17 and 18). […]
# [5] = system: immortalized HUVECs (Cell Lines); experiment: Response to growth factors, immortalized HUVECs in matrix; type: cell-based, human
# Procedure: For transfection, primary HUVECs were seeded onto uncoated 60 mm tissue culture plates and cultured until 60-70% confluent. They were then immortalized by infection with the HPV16 E6 and E7 genes and selected by G418 resistance as described above.
# The virally transfected HUVECs were tested for functionality by their ability to undergo angiogenesis in a three-dimensional fibrin-containing matrix (FIG. 16); and their ability to sequester acetylated low density lipoprotein labelled with 1,1′-dioctadecyl-3,3,3′,3′-tetramethylindocarbocyanine perchlorate (DiI-Ac-LDL; Biomed. Technol. Inc., Stoughton, Mass.), (FIGS. 17 and 18). Immortalized HUVECs can also be maintained in the serum-free medium. As with corneal cell lines, other genes can also be introduced into HUVEC lines. For example, GFP has been introduced by transfection.
# During the assays in matrices, cells were grown in serum (10%) supplemented-medium 199 containing heparin, L-glutamine or modified glutamine such as L-Alanyl-L-Glutamine (GlutaMAX™, GIBCO) and antibiotics at the same concentration as described above, without ECGS, but with 50 ng/ml of FGF-2. Serum-free medium has also been used.
# reconstructed corneas [6] = experiment: Responses of reconstructed corneas to aqueous test chemicals (wound, corneal transparency); type: cell-based, human; conditions: 100 μl centrally for 10 min, washed off with saline, re-cultured 3 days; 10% SDS, 0.01% benzalkonium chloride solution
# Procedure: Each cornea was exposed centrally to 100 μl of the test chemical for 10 min, after which the chemical was washed off with saline and the corneas were re-cultured for a further 3 days. The saline-treated cornea served as the control.
# reconstructed corneas [7] = experiment: Live-dead staining of reconstructed corneas after chemical exposure; type: cell-based, human; conditions: SDS; 0.01% benzalkonium chloride solution
# Description: Live cells are green, while dying or dead cells are orange-red. […] C.
compound,measurement,setting,value
"O=C(O)c1ccccc1Nc1cccc(C(F)(F)F)c1 [FFA, flufenamic acid]",voltages at which a second FFA-stimulated K^+ current is active,[1],greater than +10 mV
same,activation voltage of the FFA-stimulated current (I-V plot),[1]; 100 μM FFA,about −60 mV
same,increase in the maximum outward current,"[1]; 100 μM FFA in NaCl Ringer's bath, versus cells not exposed",more than 10 fold
same,Erev for the TEA-sensitive FFA-activated current,"[1]; 100 μM FFA with and without 3 mM TEA, digital subtraction of instantaneous tail currents",about −80 mV
same,reversibility of the FFA response,"[1]; 100 μM FFA, same cell",reversible and repeatable
"CC[N+](CC)(CC)CC [TEA, tetraethylammonium]",effect on the FFA-activated current,[1]; 100 μM FFA,blocked
[Ba+2] [barium],effect on the FFA-activated current,[1]; 100 μM FFA,blocked
same,sensitivity of the nonselective cation current,[2],not sensitive
[Gd] [gadolinium],sensitivity of the nonselective cation current,[2],not sensitive
"C[C@@H]1O[C@@H](O[C@H]2C[C@@H](O)[C@]3(CO)[C@H]4[C@H](O)C[C@]5(C)[C@@H](C6=CC(=O)OC6)CC[C@]5(O)[C@@H]4CC[C@]3(O)C2)[C@H](O)[C@H](O)[C@H]1O [ouabain, Ouabain]",change in corneal thickness (swelling),[3],24%
FGF-2: basic fibroblast growth factor,"Response to Growth Factors, Normal Cells",[4]; FGF-2 (50 ng/ml),Angiogenesis
same,"Response to Growth Factors, Normal Cells","[4]; FGF-2, concentration not given",Cell death
same,"Response to Growth Factors, Cell Lines",[5]; FGF-2 (50 ng/ml),Angiogenesis
same,"Response to Growth Factors, Cell Lines","[5]; FGF-2, concentration not given",Cell death
benzalkonium chloride,wound / change of corneal transparency,reconstructed corneas [6],caused wounds to the centre of the cornea
same,"live-dead staining, epithelial cells",reconstructed corneas [7],some dead and dying cells but mostly live cells
same,"live-dead staining, stromal cells",reconstructed corneas [7],mostly alive
same,penetration into the stromal compartment,reconstructed corneas [7],little/no penetration of solution into the stromal compartment
